Assay results as given in ChEMBL document CHEMBL6127107, “Oleanolic acid derivatives against drug-resistant bacteria and fungi by multi-targets to avoid drug resistance” (Eur J Med Chem, 2024).
Values after ≈ are worked out from the molar mass of the structure shown.

Tests used:
Staphylococcus aureus [1] = experiment: Antimicrobial activity against methicillin-resistant Staphylococcus aureus 003; format: functional
Enterococcus faecalis = experiment: Antimicrobial activity against vancomycin resistant Enterococcus faecalis ATCC 51299; format: functional
Staphylococcus aureus [2] = experiment: Antimicrobial activity against methicillin-resistant Staphylococcus aureus 011; format: functional
Staphylococcus aureus [3] = experiment: Antimicrobial activity against Staphylococcus aureus 29; format: functional
Staphylococcus aureus [4] = experiment: Antimicrobial activity against Staphylococcus aureus 31; format: functional
Staphylococcus aureus [5] = experiment: Antimicrobial activity against Staphylococcus aureus 10; format: functional
Candida albicans = experiment: Antimicrobial activity against fluconazole-resistant Candida albicans; format: functional
[6] = Hemolytic activity against Mianyang red blood cells (unknown origin); format: toxicity, cell-based, RBC
[7] = Selectivity index, ratio of HC50 for hemolytic activity against Mianyang red blood cells (unknown origin) to MIC for antimicrobial activity against methicillin resistant Staphylococcus aureus 003; format: toxicity, cell-based, RBC; conditions: read-out: Selectivity Index
Pseudomonas aeruginosa = experiment: Antimicrobial activity against Pseudomonas aeruginosa; format: functional
Escherichia coli = experiment: Antimicrobial activity against Escherichia coli; format: functional

Compound	MIC (Staphylococcus aureus [1]) [µg/mL]	MIC (Enterococcus faecalis) [µg/mL]	MIC (Staphylococcus aureus [2]) [µg/mL]	MIC (Staphylococcus aureus [3]) [µg/mL]	MIC (Staphylococcus aureus [4]) [µg/mL]	MIC (Staphylococcus aureus [5]) [µg/mL]	MIC (Candida albicans) [µg/mL]	HC50 [6] [µg/mL]	selectivity ratio [7]	MIC (Pseudomonas aeruginosa) [µg/mL]	MIC (Escherichia coli) [µg/mL]
CC1(C)CC[C@]2(C(=O)O)CC[C@]3(C)C(=CC[C@@H]4[C@@]5(C)CC[C@H](OC(=O)CCC(=O)O)C(C)(C)[C@@H]5CC[C@]43C)[C@@H]2C1 [OLEANOLIC ACID 3-O-SUCCINATE]	16 (≈ 28.7 µM)	32 (≈ 57.5 µM)	16 (≈ 28.7 µM)	8 (≈ 14.4 µM)	32 (≈ 57.5 µM)	16 (≈ 28.7 µM)	32 (≈ 57.5 µM)	> 1020	> 64	> 64	> 64
CC1(C)CC[C@]2(C(=O)O)CC[C@]3(C)C(=CC[C@@H]4[C@@]5(C)CC[C@H](O)C(C)(C)[C@@H]5CC[C@]43C)[C@@H]2C1 [OLEANOLIC_ACID]	64 (≈ 140 µM)	64 (≈ 140 µM)	> 64	64 (≈ 140 µM)	32 (≈ 70.1 µM)	64 (≈ 140 µM)	> 64	> 1020	> 16	–	–
CC(=O)O[C@H]1CC[C@]2(C)[C@H]3CC=C4[C@@H]5CC(C)(C)CC[C@]5(C(=O)NCCCCCCCCN)CC[C@@]4(C)[C@]3(C)CC[C@H]2C1(C)C	8 (≈ 12.8 µM)	16 (≈ 25.6 µM)	4 (≈ 6.4 µM)	8 (≈ 12.8 µM)	32 (≈ 51.2 µM)	8 (≈ 12.8 µM)	64 (≈ 102 µM)	40.2	7.53	> 64	> 64
CC1(C)CC[C@]2(C(=O)O)CC[C@]3(C)C(=CC[C@@H]4[C@@]5(C)CC[C@H](OCC(O)CCCCN)C(C)(C)[C@@H]5CC[C@]43C)[C@@H]2C1 (some centres not stated)	4 (≈ 6.99 µM)	8 (≈ 14 µM)	4 (≈ 6.99 µM)	4 (≈ 6.99 µM)	8 (≈ 14 µM)	4 (≈ 6.99 µM)	16 (≈ 28 µM)	26.1	6.54	> 64	> 64
CC1(C)CC[C@]2(C(=O)O)CC[C@]3(C)C(=CC[C@@H]4[C@@]5(C)CC[C@H](OC(=O)c6ccccc6C(=O)O)C(C)(C)[C@@H]5CC[C@]43C)[C@@H]2C1	32 (≈ 52.9 µM)	16 (≈ 26.5 µM)	32 (≈ 52.9 µM)	32 (≈ 52.9 µM)	64 (≈ 106 µM)	16 (≈ 26.5 µM)	8 (≈ 13.2 µM)	> 1020	> 32	> 64	> 64
C[C@@H]1[C@H](O)[C@@H](C)/C=C/C=C/C=C/C=C/C=C/C=C/C=C/[C@H](O[C@@H]2O[C@H](C)[C@@H](O)[C@H](N)[C@@H]2O)C[C@@H]2O[C@](O)(C[C@@H](O)C[C@@H](O)[C@H](O)CC[C@@H](O)C[C@@H](O)CC(=O)O[C@H]1C)C[C@H](O)[C@H]2C(=O)O [AMPHOTERICIN B]	–	–	–	–	–	–	1 (≈ 1.08 µM)	29.2	29.2	–	–
CC(=O)O[C@H]1CC[C@]2(C)[C@H]3CC=C4[C@@H]5CC(C)(C)CC[C@]5(C(=O)NCCCCNC(=N)N)CC[C@@]4(C)[C@]3(C)CC[C@H]2C1(C)C	2 (≈ 3.27 µM)	2 (≈ 3.27 µM)	2 (≈ 3.27 µM)	2 (≈ 3.27 µM)	4 (≈ 6.55 µM)	2 (≈ 3.27 µM)	2 (≈ 3.27 µM)	284	142	> 64	> 64
CC(=O)O[C@H]1CC[C@]2(C)[C@H]3CC=C4[C@@H]5CC(C)(C)CC[C@]5(C(=O)NCCCN)CC[C@@]4(C)[C@]3(C)CC[C@H]2C1(C)C	2 (≈ 3.6 µM)	4 (≈ 7.21 µM)	2 (≈ 3.6 µM)	4 (≈ 7.21 µM)	8 (≈ 14.4 µM)	4 (≈ 7.21 µM)	2 (≈ 3.6 µM)	78.5	39.2	> 64	> 64
CC1(C)CC[C@]2(C(=O)O)CC[C@]3(C)C(=CC[C@@H]4[C@@]5(C)CC[C@H](OCC(O)CCCCCCCCN)C(C)(C)[C@@H]5CC[C@]43C)[C@@H]2C1 (some centres not stated)	8 (≈ 12.7 µM)	16 (≈ 25.5 µM)	8 (≈ 12.7 µM)	8 (≈ 12.7 µM)	32 (≈ 51 µM)	8 (≈ 12.7 µM)	32 (≈ 51 µM)	25.2	3.15	> 64	> 64
CC1(C)S[C@@H]2[C@H](NC(=O)[C@H](N)c3ccccc3)C(=O)N2[C@H]1C(=O)O [AMPICILLIN]	> 128	2 (≈ 5.72 µM)	> 128	2 (≈ 5.72 µM)	2 (≈ 5.72 µM)	2 (≈ 5.72 µM)	–	> 256	–	–	–
CC1(C)CC[C@]2(C(=O)O)CC[C@]3(C)C(=CC[C@@H]4[C@@]5(C)CC[C@H](OC(=O)CCCC(=O)O)C(C)(C)[C@@H]5CC[C@]43C)[C@@H]2C1	32 (≈ 56.1 µM)	32 (≈ 56.1 µM)	32 (≈ 56.1 µM)	32 (≈ 56.1 µM)	64 (≈ 112 µM)	32 (≈ 56.1 µM)	32 (≈ 56.1 µM)	> 1020	> 32	> 64	> 64
OC(Cn1cncn1)(Cn1cncn1)c1ccc(F)cc1F [FLUCONAZOLE]	–	–	–	–	–	–	> 128	> 256	–	–	–
CCCCCCCCCCCCCOC(=O)[C@]12CCC(C)(C)C[C@H]1C1=CC[C@@H]3[C@@]4(C)CC[C@H](O)C(C)(C)[C@@H]4CC[C@@]3(C)[C@]1(C)CC2	> 64	> 64	> 64	> 64	> 64	> 64	> 64	–	–	> 64	> 64
CCCCCOC(=O)[C@]12CCC(C)(C)C[C@H]1C1=CC[C@@H]3[C@@]4(C)CC[C@H](O)C(C)(C)[C@@H]4CC[C@@]3(C)[C@]1(C)CC2	> 64	> 64	> 64	> 64	> 64	> 64	> 64	–	–	> 64	> 64
CC1(C)CC[C@]2(C(=O)O)CC[C@]3(C)C(=CC[C@@H]4[C@@]5(C)CC[C@H](OCC(O)CCCCCCCCNC(=N)N)C(C)(C)[C@@H]5CC[C@]43C)[C@@H]2C1 (some centres not stated)	8 (≈ 11.9 µM)	8 (≈ 11.9 µM)	4 (≈ 5.97 µM)	8 (≈ 11.9 µM)	16 (≈ 23.9 µM)	8 (≈ 11.9 µM)	16 (≈ 23.9 µM)	577	72.1	> 64	> 64
CCNCC(O)CO[C@H]1CC[C@]2(C)[C@H]3CC=C4[C@@H]5CC(C)(C)CC[C@]5(C(=O)O)CC[C@@]4(C)[C@]3(C)CC[C@H]2C1(C)C (some centres not stated)	> 64	> 64	> 64	> 64	> 64	> 64	> 64	–	–	> 64	> 64
CCCOC(=O)[C@]12CCC(C)(C)C[C@H]1C1=CC[C@@H]3[C@@]4(C)CC[C@H](O)C(C)(C)[C@@H]4CC[C@@]3(C)[C@]1(C)CC2	> 64	> 64	> 64	> 64	> 64	> 64	> 64	–	–	> 64	> 64
CC(=O)O[C@H]1CC[C@]2(C)[C@H]3CC=C4[C@@H]5CC(C)(C)CC[C@]5(C(=O)NCCCCN)CC[C@@]4(C)[C@]3(C)CC[C@H]2C1(C)C	4 (≈ 7.03 µM)	4 (≈ 7.03 µM)	2 (≈ 3.52 µM)	8 (≈ 14.1 µM)	8 (≈ 14.1 µM)	8 (≈ 14.1 µM)	4 (≈ 7.03 µM)	65.8	16.5	> 64	> 64
CCCCCCCCC(=O)O[C@H]1CC[C@]2(C)[C@H]3CC=C4[C@@H]5CC(C)(C)CC[C@]5(C(=O)O)CC[C@@]4(C)[C@]3(C)CC[C@H]2C1(C)C	> 64	> 64	> 64	> 64	> 64	> 64	> 64	–	–	> 64	> 64
CC1(C)CC[C@]2(C(=O)O)CC[C@]3(C)C(=CC[C@@H]4[C@@]5(C)CC[C@H](OCC(O)CCCN)C(C)(C)[C@@H]5CC[C@]43C)[C@@H]2C1 (some centres not stated)	4 (≈ 7.17 µM)	8 (≈ 14.3 µM)	2 (≈ 3.59 µM)	2 (≈ 3.59 µM)	8 (≈ 14.3 µM)	4 (≈ 7.17 µM)	4 (≈ 7.17 µM)	32	8.01	> 64	> 64
CC1(C)CC[C@]2(C(=O)O)CC[C@]3(C)C(=CC[C@@H]4[C@@]5(C)CC[C@H](OCC(O)CCCCNC(=N)N)C(C)(C)[C@@H]5CC[C@]43C)[C@@H]2C1 (some centres not stated)	2 (≈ 3.26 µM)	4 (≈ 6.52 µM)	2 (≈ 3.26 µM)	8 (≈ 13 µM)	8 (≈ 13 µM)	8 (≈ 13 µM)	4 (≈ 6.52 µM)	660	330	> 64	> 64
CC(=O)O[C@H]1CC[C@]2(C)[C@H]3CC=C4[C@@H]5CC(C)(C)CC[C@]5(C(=O)NCCCCCCCCNC(=N)N)CC[C@@]4(C)[C@]3(C)CC[C@H]2C1(C)C	4 (≈ 6 µM)	8 (≈ 12 µM)	2 (≈ 3 µM)	4 (≈ 6 µM)	16 (≈ 24 µM)	4 (≈ 6 µM)	16 (≈ 24 µM)	232	57.9	> 64	> 64
CCCCC(=O)O[C@H]1CC[C@]2(C)[C@H]3CC=C4[C@@H]5CC(C)(C)CC[C@]5(C(=O)O)CC[C@@]4(C)[C@]3(C)CC[C@H]2C1(C)C	> 64	> 64	> 64	> 64	> 64	> 64	> 64	–	–	> 64	> 64
CCCCCCC(=O)O[C@H]1CC[C@]2(C)[C@H]3CC=C4[C@@H]5CC(C)(C)CC[C@]5(C(=O)O)CC[C@@]4(C)[C@]3(C)CC[C@H]2C1(C)C	> 64	> 64	> 64	> 64	> 64	> 64	> 64	–	–	> 64	> 64
